Where two headings read alike, the source gives them in different places. Starred links: 1 amine or outer side, 2 acyl side, 3 side chain; linkers in the order of their positions; H or OH if unused. Positions of bridges follow the written chain, without caps; N, C: chain ends. Non-standard residues stand in square brackets, D forms with d. Residues, ends and D or L forms follow the SMILES beside them. *: point of attachment. DAMPA = CN(Cc1cnc2nc(N)nc(N)c2n1)c1ccc(C(=O)*)cc1; γGlu = O=C(O)[C@H](CCC(=O)[*:2])N[*:1]; Pen = CC(C)(S)[C@H](N)C(=O)O
Assays:
[1] = tested on: Molt-3 T-cells; assay: cells; format: cell-based, human
Description: (§1) The cytotoxicity of MTX-peptide conjugates was evaluated in different cell lines, lincluding Molt-3 and L1210 T-cells, and KB epithelial cells. […] After 72 h of growth, the relative numbers of viable cells were determined according to the manufacture's protocols for measuring cytotoxicity using a Dojindo Cytotoxicity Assay Cell counting Kit-8 (CCK-8). To measure the cell viability, 10 μL of CCK-8 was added to each well and the plate was incubated for 4 h. After incubation, the absorbance at 450 nm was measured using a UV plate reader. Cell growth in the presence of different drug concentrations was calculated relative to the value obtained in the absence of the drug. […] Serial dilutions of compounds were prepared in un-supplemented medium, and 110 μL of drug solution was aliquoted in duplicate into 900 μL cell suspensions. Control flasks were treated with 110 μL of un-supplemented medium. Cells were incubated under standard conditions for 48 h, sufficient to allow control cells to divide approximately four times. Growth inhibition was determined by counting the cells on a Z2 model Coulter Counter (Coulter Electronics Ltd, Luton, Beds, UK). The IC50 values were calculated using Graphpad Prism software (Graphpad Software, San Diego, Calif.). KB MTT Assay: KB cells were seeded in Falcons® 96 well plates (Becton-Dickinson Labware Europe, France) at a density of 1,500 cells/well in a volume of 0.18 mL culture medium and incubated under standard culture conditions for 24 h after seeding to allow entry into the exponential phase of cell growth. […] In each assay condition, control cells were treated with 20 μL of un-supplemented medium instead of drug. Cells were incubated for 96 h to allow control cells to divide approximately four times before cell viability was determined by MTT assay.

[2] = tested on: dihydrofolate reductase enzyme (DHFR); assay: DHFR inhibition assay (spectrophotometric NADPH loss, Dixon plots); format: biochemical; details: for Ymax: from Dixon plots
Description: Into a 2.0 mL cuvette, a 1.0 mL solution of 0.11 mM β-NADPH and 33 μL of 2.3 mM DHFA were aliquoted and allowed to equilibrate. […] To begin the assay, 33 μL of DHFR (0.12-0.25 unit/mL with 0.1% BSA) was added to the reaction mixture. The absorbance of the reaction mixture was then recorded continuously for 5 min at 340 nm and the enzyme activity was determined by the rate of NADPH loss. Enzyme activity was determined for three different fixed concentrations of substrate (0.19, 1.9 and 10.0 mM DHFA).

[3] = tested on: collagen induced rheumatoid arthritis (CIA); assay: collagen induced rheumatoid arthritis (CIA) animal model; format: in vivo, mice; details: for mice showing signs of joint eburnation: histopathologic examination; for Total joint damage (TJD): sum of histopathology scores (0 to 3) for each limb; for arthritis index score for the limb: i.v. once daily after day 35
Description: […] received intravenous injections of saline while another treatment group received MTX injections (molar equivalent dosage to conjugate) for five days. Clinical arthritis symptoms were evaluated weekly for up to sixteen weeks. Arthritis development was evaluated by several parameters, including the percent of animals acquiring arthritis, arthritis index (AI) score of limbs, changes in paw-volumes and histologic score for the joint.
Mice injected with collagen adjuvant developed pronounced inflammation of the joints, as evidenced by swelling and erythema. […] Total joint damage (TJD) was calculated as the sum the scores for each limb assigned by the pathologist on a scale of 0 to 3 (where 0 is no change and 3 is gross histological change).

[4] = tested on: IL-6 production; assay: IL-6 production in TNF-α stimulated HCAEC monolayers; format: cell-based; details: 0.001-100 μM, 24 h
Description: The cell monolayers were cultured in vitro with the test compounds (0.001 to 100 μM) in the presence of TNF-α for 24 h. Results are expressed as the percentage of cytokine relative to the positive control or non-treated monolayers (the baseline 100% cytokine production. The control levels (mean±SE) were as follows: IL-6: 3.4±0.17 ng/mL, IL-8: 199.5±9.13 ng/mL.
It is well known that some anti-inflammatory agents can modulate the secretion of inflammatory cytokines. […] MTX-peptide(s) only begins to effectively reduce the IL-8 production at ≧0.1 μM. At ≦1 μM, neither cLAB.L nor cLBE.L affected the IL-8 production (FIG. 8B).

[5] = tested on: L1210-1565 cells; assay: cell cycle analysis in L1210-1565 cells (PI staining, flow cytometry); format: cell-based, mouse; details: 1 μM
Description: The cell pellets were resuspended and fixed in 2.5 mL of ice-cold 70% ethanol. These pellets were stored at 4° C. before analysis using flow cytometry.
PI staining of fixed cell pellets for cell cycle analysis: One day prior to analysis, cells were centrifuged at 450×g (2500 rpm) for 5 min at room temperature and the pellets re-suspended in 0.8 mL PBS followed by addition of 0.1 mL each of 1 mg/mL ribonuclease A (RNase A; Sigma) and 0.4 mg/mL PI (Sigma). RNA digestion by RNase A is required to avoid the intercalation of PI into the double-stranded regions of this nucleic acid, which interfers with the measurement of DNA. After a 30 min incubation at 37° C., samples were wrapped in aluminum foil and stored at 4° C. overnight. Cell cycle analysis was performed using a Coulter EPICS Elite ESP (Beckman Coulter, Buckinghamshire, UK) equipped with an argon-ion laser tuned to 488 nm and red fluorescence collected at 630 nm. DNA histograms were produced and analyzed using the Winmidi software package (v.2.8, written by J.Trotter, University of Cardiff, UK).

[6] = tested on: L1210 mouse leukemia cells; assay: cells; format: cell-based
Description: as §1

[7] = tested on: KB epithelial cells; assay: KB MTT assay (96 h); format: cell-based, human
Description: Human KB epithelial l cells: The human KB epithelial cell line was a gift from Dr Gerrit Jansen (University Free Hospital, Amsterdam, Netherlands) and was developed to overexpress the membrane folate binding protein (mFBP). Cells were cultured in RPMI 1640 medium without folic acid and supplemented with 10% heat inactivated dialyzed FCS (50 mL volume), 0.2 mL of 50 μg/mL gentamicin, 1 mL of 50 μg/mL amphotericin B, and 5 mL of 200 mM L-glutamine. The folate source, 20 nM (R,S)-LV, was added to supply cells with adequate growth conditions.
The cytotoxicity of MTX-peptide conjugates was evaluated in different cell lines, lincluding Molt-3 and L1210 T-cells, and KB epithelial cells. […] After 72 h of growth, the relative numbers of viable cells were determined according to the manufacture's protocols for measuring cytotoxicity using a Dojindo Cytotoxicity Assay Cell counting Kit-8 (CCK-8). To measure the cell viability, 10 μL of CCK-8 was added to each well and the plate was incubated for 4 h. After incubation, the absorbance at 450 nm was measured using a UV plate reader. Cell growth in the presence of different drug concentrations was calculated relative to the value obtained in the absence of the drug. […] Growth inhibition was determined by counting the cells on a Z2 model Coulter Counter (Coulter Electronics Ltd, Luton, Beds, UK). The IC50 values were calculated using Graphpad Prism software (Graphpad Software, San Diego, Calif.). […] Cells were incubated for 96 h to allow control cells to divide approximately four times before cell viability was determined by MTT assay.
The number of viable cells after a 96-h incubation was determined by assessing their ability to reduce MTT ([…]). […] The absorbance of the solution in each well was measured at 540 nm on a MCC/340 model Titertak Multiscan® plate reader (Labsystems/Flow Laboratories, Oxfordshire, UK). The results were analyzed using Ascent Research software v.2.1 (Labsystems, UK).

[8] = target: T1, Thymidine synthase (TS) (Mus musculus, UniProt P07607); format: cell-based
T1 construct: endogenous in cells; host or cells: L1210-1565 mouse leukemia cells
Description: An equivalent amount of unsupplemented medium was added to control flasks. On the day of each experiment, a fresh solution of unlabelled deoxyuridine (dUrd) was prepared in deionized H2O (dH2O) and was added to a stock solution of [5-^3H]-dUrd (22 Ci/mmole) to give a concentration of 300 μM and a specific activity of 3.3 Ci/mmole (˜7260 dpm/pmole).
To begin the assay, the 300 μM [5-^3H]-dUrd stock solution was diluted ten fold in deionized H2O and 50 μL of this solution was added to each culture flask to give a final concentration of 0.03 μM. The rate of ^3H2O formation was measured over a 1 h period (20, 40 and 60 min) by removing a 3×0.4 mL aliquot of the cells in culture medium and mixing it with 0.4 mL of ice-cold 1.0 M perchloric acid (PCA; Sigma) in microfuge tubes. […] For each time point, radioactivity was determined by counting each vial on the tritium channel of a Tri-Carb 2000CA Model Liquid Scintillation Analyzer (Canberra Packard, Pangbourne, Berkshire, UK). Background radioactivity was assessed by cooling a flask of untreated cells on ice before the start of each experiment and adding 50 mL of the [5-^3H]-dUrd solution. Aliquots of 3×0.4 mL aliquots of cells in culture medium were added to 1.0 M PCA-containing microfuge tubes and the rate of ^3H2O release was analyzed as described above. […]

[9] = target: T2, LFA-1 (Homo sapiens, UniProt P20701); assay: binding to LFA-1 on Molt-3 T-cells (reduction of FITC anti-CD11a antibody binding, flow cytometry); details: 1, 10 or 100 μM, 45 min, 4° C.
T2 construct: endogenous in cells
Description: The binding of MTX-peptide conjugates to LFA-1 in response to LFA-1 activation was evaluated. As necessary, cells were activated with 10% v/v phorbol 12-myristate-13-acetate (PMA) containing medium to a final concentration of 2 μM PMA and incubated for 16 h. […] T-cells were centrifuged for 3 min at 1800 rpm, the supernatant was decanted by flicking off excess liquid, and the cells were re-suspended in 500 μL of PBS. The cells were then re-centrifuged, supernatant was removed, and cells were re-suspended again in 150 μL of PBS/BSA 1%. Next, 50 μL of an FITC-labeled anti-CD11a antibody (clone 38, 10 μg/L) was added and incubated for 45 min at 4° C. followed by washing. After the 45 min of incubation with FITC-labeled antibody, cell samples were transferred to Eppendorf tubes and centrifuged at 3000 g for 3 min. The supernatant was decanted, and the pellet was washed twice with 10 mM HEPES/PBS. The cells were then fixed with ice-cold 2% w/v paraformaldehyde/PBS for 20 min. Samples were analyzed using a Becton-Dickinson FACScan flow cytometer with 3.2.1 fl software for data analysis and acquisition.

T1 sequence (P07607 whole entry): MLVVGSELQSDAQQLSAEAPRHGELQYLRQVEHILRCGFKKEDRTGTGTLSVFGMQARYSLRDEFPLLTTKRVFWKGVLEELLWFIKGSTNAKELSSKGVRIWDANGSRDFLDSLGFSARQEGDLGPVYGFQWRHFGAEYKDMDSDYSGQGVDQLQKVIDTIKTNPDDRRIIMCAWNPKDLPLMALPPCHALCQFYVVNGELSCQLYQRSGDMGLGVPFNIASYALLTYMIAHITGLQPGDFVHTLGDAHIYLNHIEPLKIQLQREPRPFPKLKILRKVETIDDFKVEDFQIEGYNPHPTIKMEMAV
T2 sequence (P20701 26-1170): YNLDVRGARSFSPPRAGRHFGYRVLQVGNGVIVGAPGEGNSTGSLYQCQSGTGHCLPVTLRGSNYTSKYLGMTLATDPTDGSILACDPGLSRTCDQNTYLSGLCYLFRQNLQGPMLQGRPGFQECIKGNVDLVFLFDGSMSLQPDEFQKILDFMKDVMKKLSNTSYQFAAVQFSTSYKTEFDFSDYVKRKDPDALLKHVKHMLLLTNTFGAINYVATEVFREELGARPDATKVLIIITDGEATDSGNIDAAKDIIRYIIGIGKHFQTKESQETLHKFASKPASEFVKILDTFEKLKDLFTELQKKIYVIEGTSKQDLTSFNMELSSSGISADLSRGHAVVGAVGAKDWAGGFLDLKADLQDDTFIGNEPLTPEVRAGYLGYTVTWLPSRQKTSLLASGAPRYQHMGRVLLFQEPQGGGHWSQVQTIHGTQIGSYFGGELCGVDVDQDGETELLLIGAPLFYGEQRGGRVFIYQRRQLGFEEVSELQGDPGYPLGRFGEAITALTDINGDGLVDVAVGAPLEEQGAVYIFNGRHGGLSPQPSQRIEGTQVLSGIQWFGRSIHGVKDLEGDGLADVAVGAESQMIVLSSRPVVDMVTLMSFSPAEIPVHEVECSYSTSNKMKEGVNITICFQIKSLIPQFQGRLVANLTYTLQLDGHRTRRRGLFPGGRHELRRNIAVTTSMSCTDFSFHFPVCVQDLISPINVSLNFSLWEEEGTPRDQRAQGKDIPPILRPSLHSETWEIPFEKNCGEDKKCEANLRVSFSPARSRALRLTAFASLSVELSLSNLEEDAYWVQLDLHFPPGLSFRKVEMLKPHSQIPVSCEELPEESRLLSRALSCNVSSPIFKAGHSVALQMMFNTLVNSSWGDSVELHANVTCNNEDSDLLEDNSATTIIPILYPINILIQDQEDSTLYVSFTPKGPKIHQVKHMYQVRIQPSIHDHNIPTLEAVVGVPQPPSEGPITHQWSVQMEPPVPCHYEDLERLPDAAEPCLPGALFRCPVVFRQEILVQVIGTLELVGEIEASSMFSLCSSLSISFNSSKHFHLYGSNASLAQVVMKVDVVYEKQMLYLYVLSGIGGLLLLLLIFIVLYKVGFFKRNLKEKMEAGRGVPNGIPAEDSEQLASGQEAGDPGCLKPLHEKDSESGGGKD
T2 sequence (P05107 23-769 partner): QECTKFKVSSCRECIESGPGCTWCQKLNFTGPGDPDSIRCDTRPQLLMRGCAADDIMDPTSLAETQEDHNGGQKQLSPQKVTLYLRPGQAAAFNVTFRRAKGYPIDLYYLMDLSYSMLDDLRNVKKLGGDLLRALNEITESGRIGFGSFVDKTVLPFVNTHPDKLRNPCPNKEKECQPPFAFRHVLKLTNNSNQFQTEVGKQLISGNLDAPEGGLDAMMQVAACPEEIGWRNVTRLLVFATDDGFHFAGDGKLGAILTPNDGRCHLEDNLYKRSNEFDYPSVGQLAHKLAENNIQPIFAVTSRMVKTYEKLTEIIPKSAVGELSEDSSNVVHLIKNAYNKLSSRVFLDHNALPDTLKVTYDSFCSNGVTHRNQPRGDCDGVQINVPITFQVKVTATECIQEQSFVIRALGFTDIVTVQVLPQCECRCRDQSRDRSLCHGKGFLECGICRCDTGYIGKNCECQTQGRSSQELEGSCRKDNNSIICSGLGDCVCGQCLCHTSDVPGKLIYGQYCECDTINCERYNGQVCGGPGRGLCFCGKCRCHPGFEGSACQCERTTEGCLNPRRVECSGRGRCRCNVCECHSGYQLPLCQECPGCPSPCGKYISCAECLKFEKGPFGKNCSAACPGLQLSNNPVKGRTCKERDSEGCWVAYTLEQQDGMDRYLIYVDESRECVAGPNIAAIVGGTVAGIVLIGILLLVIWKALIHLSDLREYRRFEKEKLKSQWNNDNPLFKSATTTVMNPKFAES

| Compound | IC50 ([1]; Homo sapiens, MOLT-3, 72 h, read-out: IC50 Molt-3 T-cells) [nM] | Ymax [2] | mice showing signs of joint eburnation [3] [%] | Total joint damage (TJD) [3] | block of IL-6 production [4] | time of treatment after which arrest of cells in S phase was seen [5] [h] | IC50 ([6]; Mus musculus, L1210, 48 h, read-out: IC50 L1210 mouse leukemia cells) [nM] | IC50 ([7]; Homo sapiens, Epithelial cell) [nM] | IC50 ([1]; 72 h) [nM] | Km relative to that of MTX [2] [fold] | arthritis index score for the limb ([3]; week 8) | arthritis index score for the limb ([3]; week 12) | ability to inhibit TS after wash-out [8] | inhibition of 3H2O production by TS, continuous exposure ([8]; 3 μM, 4 h incubation) | binding to the LFA-1 receptor [9] | IC50 ([6]; 48 h) [nM] | IC50 [7] [nM] |
| --- | --- | --- | --- | --- | --- | --- | --- | --- | --- | --- | --- | --- | --- | --- | --- | --- | --- |
| CN(Cc1cnc2nc(N)nc(N)c2n1)c1ccc(C(=O)N[C@@H](CCC(=O)O)C(=O)O)cc1 [MTX, methotrexate, reference compound] | 61 ± 20 | 4.30 ± 0.42 × 10^−4 | 44 | 7.4±2.5 | partly block the production of IL-6 | 24 | 14 ± 4 | 27 |  |  |  |  |  |  |  |  |  |
| CC(C)C[C@@H]1NC(=O)[C@H](C(C)C)NC(=O)[C@H](CO)NC(=O)CNC(=O)CNC(=O)[C@H](CCCNC(=N)N)NC(=O)[C@@H]2CCCN2C(=O)[C@@H](NC(=O)CC[C@H](NC(=O)c2ccc(N(C)Cc3cnc4nc(N)nc(N)c4n3)cc2)C(=O)O)C(C)(C)SSC[C@@H](C(=O)O)NC(=O)CNC(=O)[C@H]([C@@H](C)O)NC(=O)[C@H](C(C)C)NC1=O [MTX-cIBR] ({DAMPA-γGlu}-[Pen]PRGGSVLVTGC-OH; disulfide 1-12) |  | 4.10 ± 0.18 × 10^−4 | 10 | 4.4±2.1 |  | 36 |  |  | 2750 ± 800 | ~15 | two | zero | retained more activity than the linear conjugate | inhibited to a similar degree | specific to the LFA-1 receptor | 5500 ± 2000 | > 10000 |

Reference: patent US20040037775A1, “Leukocyte internalized peptide-drug conjugates” (priority 2000, published 2004)
